Assay results: BigSolDB 2.1

O=C1c2ccccc2-c2ccc(Br)cc21
solubility (mole fraction)
Conditions | in 1,4-dioxane | in acetonitrile | in ethanol | in ethyl acetate | in isopropanol | in methanol | in methyl acetate | in n-butanol | in n-butyl acetate | in n-propanol
278.15 K | – | 0.000793 | 0.000435 | 0.00515 | 0.000365 | 0.000214 | 0.00408 | 0.000924 | 0.00637 | 0.0006
283.15 K | 0.0136 | 0.001 | 0.000546 | 0.00603 | 0.000477 | 0.000265 | 0.00517 | 0.00119 | 0.00757 | 0.000747
288.15 K | 0.0167 | 0.00122 | 0.000674 | 0.00732 | 0.000604 | 0.000329 | 0.00608 | 0.00148 | 0.00911 | 0.000915
293.15 K | 0.0199 | 0.00152 | 0.000831 | 0.00865 | 0.000765 | 0.00042 | 0.00738 | 0.0018 | 0.0113 | 0.00116
298.15 K | 0.0241 | 0.00188 | 0.00101 | 0.0102 | 0.000969 | 0.000529 | 0.00882 | 0.00221 | 0.0136 | 0.00143
303.15 K | 0.0284 | 0.00227 | 0.00123 | 0.012 | 0.0012 | 0.00066 | 0.0105 | 0.00268 | 0.016 | 0.00173
308.15 K | 0.0334 | 0.00273 | 0.00146 | 0.0136 | 0.00148 | 0.000828 | 0.0123 | 0.00328 | 0.019 | 0.00208
313.15 K | 0.0391 | 0.00327 | 0.00174 | 0.016 | 0.00183 | 0.00102 | 0.0144 | 0.00393 | 0.0221 | 0.0025
318.15 K | 0.0455 | 0.00389 | 0.00205 | 0.0183 | 0.00224 | 0.00127 | 0.0168 | 0.00466 | 0.0259 | 0.00297
323.15 K | 0.0527 | 0.0046 | 0.00239 | 0.0212 | 0.0027 | 0.00157 | 0.0193 | 0.00553 | 0.03 | 0.0035
